Measured values as given in patent US6908935B2, “Calcium receptor modulating agents” (Amgen Inc., priority 2002, dated 2005).

target: T1, human parathyroid cell Ca^2+ receptor (hPCaR) (Homo sapiens, UniProt P41180); experiment: [Ca2+]i measurement with fluo-3 in HEK 293 4.0-7 cells stably transfected with hPCaR; type: cell-based; details: fluo-3 fluorescence (485/530 nm), effect on [Ca^2+]i
T1 construct: expressed in transfected cells
T1 sequence (P41180 20-1078): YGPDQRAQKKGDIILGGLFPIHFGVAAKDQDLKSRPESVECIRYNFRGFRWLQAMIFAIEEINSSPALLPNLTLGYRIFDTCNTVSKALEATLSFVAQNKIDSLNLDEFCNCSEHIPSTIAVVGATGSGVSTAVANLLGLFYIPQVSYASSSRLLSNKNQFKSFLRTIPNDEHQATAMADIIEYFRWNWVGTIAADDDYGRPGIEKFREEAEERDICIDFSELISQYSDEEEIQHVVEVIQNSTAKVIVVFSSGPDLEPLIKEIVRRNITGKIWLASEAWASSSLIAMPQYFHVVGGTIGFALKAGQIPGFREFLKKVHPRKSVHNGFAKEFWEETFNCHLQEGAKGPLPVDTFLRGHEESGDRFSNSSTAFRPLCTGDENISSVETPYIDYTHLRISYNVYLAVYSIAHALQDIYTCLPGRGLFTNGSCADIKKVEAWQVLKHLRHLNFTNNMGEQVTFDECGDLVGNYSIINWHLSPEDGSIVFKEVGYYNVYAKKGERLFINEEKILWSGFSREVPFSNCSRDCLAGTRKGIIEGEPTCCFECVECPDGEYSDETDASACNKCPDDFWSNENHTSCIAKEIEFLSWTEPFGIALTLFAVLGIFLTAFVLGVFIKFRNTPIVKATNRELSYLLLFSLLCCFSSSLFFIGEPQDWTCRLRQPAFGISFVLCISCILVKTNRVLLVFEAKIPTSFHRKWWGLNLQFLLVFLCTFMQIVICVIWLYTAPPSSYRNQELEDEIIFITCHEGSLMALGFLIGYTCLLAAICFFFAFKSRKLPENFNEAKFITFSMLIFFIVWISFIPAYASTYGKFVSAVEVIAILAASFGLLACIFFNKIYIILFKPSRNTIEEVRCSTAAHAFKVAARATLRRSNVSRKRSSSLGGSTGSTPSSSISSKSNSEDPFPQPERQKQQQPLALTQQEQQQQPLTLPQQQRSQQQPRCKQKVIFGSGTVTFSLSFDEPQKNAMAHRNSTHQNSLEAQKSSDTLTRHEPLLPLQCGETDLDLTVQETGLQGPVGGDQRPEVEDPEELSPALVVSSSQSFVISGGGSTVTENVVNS
Summary of the method: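 Cytosolic [Ca2+] was read as fluo-3 fluorescence (ex 485/em 530 nm) after compound addition to washed cells. Cells were hPCaR-transfected HEK 293 clone 7, dye-loaded 30 min at 37 °C with 2 μM fluo-3 acetoxymethyl ester in HEPES-buffered saline pH 7.45 containing 1 mM CaCl2 and 0.5% BSA.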

EC50, ≤ 10 µM:
CCNC(=O)Nc1ccc(CN[C@H](C)c2cccc3ccccc23)cc1-c1ccc(OC)cc1 [N-ethyl-N′-(4′-(methyloxy)-5-((((1R)-1-(1-naphthalenyl)ethyl)amino)methyl)-1,1′-biphenyl-2-yl)urea]
COc1ccc(CN[C@H](C)c2cccc3ccccc23)cc1-c1cccc(OC(F)(F)F)c1 [(1R)-N-((6-(methyloxy)-3′-((trifluoromethyl)oxy)-1,1′-biphenyl-3-yl)methyl)-1-(1-naphthalenyl)ethanamine]
COc1ccc([C@@H](C)NCc2ccc(OC)c(-c3cccnc3)c2)cc1 [(1R)-1-(4-(methyloxy)phenyl)-N-((4-(methyloxy)-3-(3-pyridinyl)phenyl)methyl)ethanamine]
COc1ccc(CN[C@H](C)c2cccc3ccccc23)cc1-c1cn(C)cn1 [(1R)-N-((3-(1-methyl-1H-imidazol-4-yl)-4-(methyloxy)phenyl)methyl)-1-(1-naphthalenyl)ethanamine]
COc1ccc(-c2cc(CN[C@H](C)c3cccc(OC)c3)ccc2F)cc1 [(1R)-N-((6-fluoro-4′-(methyloxy)-1,1′-biphenyl-3-yl)methyl)-1-(3-(methyloxy)phenyl)ethanamine]
COc1ccc(CN[C@H](C)c2cccc3ccccc23)cc1-c1ccc2ncccc2c1 [(1R)-N-((4-(methyloxy)-3-(6-quinolinyl)phenyl)methyl)-1-(1-naphthalenyl)ethanamine]
COc1cccc(-c2cc(CN[C@H](C)c3cccc4ccccc34)ccc2OC)c1 [(1R)-N-((3′,6-bis(methyloxy)-1,1′-biphenyl-3-yl)methyl)-1-(1-naphthalenyl)ethanamine]
Cc1ccc(-c2cccc(CN[C@H](C)c3cccc4ccccc34)c2)cn1 [(1R)-N-((3-(6-methyl-3-pyridinyl)phenyl)methyl)-1-(1-naphthalenyl)ethanamine]
COc1ccc(CN[C@H](C)c2ccccc2)cc1-c1cnc(OCC(F)(F)F)nc1 [(1R)-N-((4-(methyloxy)-3-(2-((2,2,2-trifluoroethyl)oxy)-5-pyrimidinyl)phenyl)methyl)-1-phenylethanamine]
COc1cccc([C@@H](C)NCc2ccc(OC)c(-c3ccccc3)c2)c1 [(1R)-N-((6-(methyloxy)-1,1′-biphenyl-3-yl)methyl)-1-(3-(methyloxy)phenyl)ethanamine]
COc1ccc(CNC(C)c2cccc(N(C)C)c2)cc1-c1ccc(C(F)(F)F)cc1 (stereo not drawn)
COc1cccc([C@@H](C)NCc2ccc(OC)c(-c3ccc4ccn(C)c4c3)c2)c1 [(1R)-N-((3-(1-methyl-1H-indol-6-yl)-4-(methyloxy)phenyl)methyl)-1-(3-(methyloxy)phenyl)ethanamine]
Cc1ccc([C@@H](C)NCc2cccc(-c3ncnc4c3ncn4C)c2)cc1 [Example 241, (1R)-1-(4-methylphenyl)-N-((3-(9-methyl-9H-purin-6-yl)phenyl)methyl)ethanamine]
COc1cccc([C@@H](C)NCc2cccc(-c3ccc(F)cc3)c2)c1 [(1R)-N-((4′-fluoro-1,1′-biphenyl-3-yl)methyl)-1-(3-(methyloxy)phenyl)ethanamine]
COc1ccc([C@@H](C)NCc2ccc(OC)c(-c3cccc(C#N)c3)c2)cc1 [2′-(methyloxy)-5′-((((1R)-1-(4-(methyloxy)phenyl)ethyl)amino)methyl)-1,1′-biphenyl-3-carbonitrile]
COc1ccc(CN[C@@H](C)c2ccccc2)cc1-c1ccc(C(F)(F)F)cc1 [(1S)-N-((6-(methyloxy)-4′-(trifluoromethyl)-1,1′-biphenyl-3-yl)methyl)-1-phenylethanamine]
Cc1ccc([C@@H](C)NCc2cccc(-c3ccc(C)nc3)c2)cc1 [(1R)-1-(4-methylphenyl)-N-((3-(6-methyl-3-pyridinyl)phenyl)methyl)ethanamine]
COc1ccc(CN[C@H](C)c2cccc3ccccc23)cc1-c1ccc2nccnc2c1 [(1R)-N-((4-(methyloxy)-3-(6-quinoxalinyl)phenyl)methyl)-1-(1-naphthalenyl)ethanamine]
COc1ccc(CN[C@H](C)c2cccc3ccccc23)cc1-c1cnc2c(ccn2C)c1 [(1R)-N-((4-(methyloxy)-3-(1-methyl-1H-pyrrolo[2,3-b]pyridin-5-yl)phenyl)methyl)-1-(1-naphthalenyl)ethanamine]
COCCOc1cccc([C@@H](C)NCc2ccc(OC)c(-c3ccc(C(F)(F)F)cc3)c2)c1 [(1R)-1-(3-((2-(methyloxy)ethyl)oxy)phenyl)-N-((6-(methyloxy)-4′-(trifluoromethyl)-1,1′-biphenyl-3-yl)methyl)ethanamine]
COc1ccc(CN[C@H](C)c2ccccc2)cc1-c1cnc2c(ccn2C)c1 [(1R)-N-((4-(methyloxy)-3-(1-methyl-1H-pyrrolo[2,3-b]pyridin-5-yl)phenyl)methyl)-1-phenylethanamine]
C[C@@H](NCc1ccc(OCC(F)(F)F)c(-c2ccc(C(F)(F)F)cc2)c1)c1ccccc1 [(1R)-1-phenyl-N-((6-((2,2,2-trifluoroethyl)oxy)-4′-(trifluoromethyl)-1,1′-biphenyl-3-yl)methyl)ethanamine]
COc1ccc(CN[C@H](C)c2cccc3ccccc23)cc1-c1ccc(C(F)(F)F)nc1
COc1ccc(CN[C@H](C)c2cccc3ccccc23)cc1-c1ccc2ccccc2c1 [(1R)-N-((4-(methyloxy)-3-(2-naphthalenyl)phenyl)methyl)-1-(1-naphthalenyl)ethanamine]
COc1ccc(CN[C@H](C)c2ccccc2)cc1-c1cccnc1NCC1CCCO1 (stereo partly drawn) [3-(2-(methyloxy)-5-((((1R)-1-phenylethyl)amino)methyl)phenyl)-N-(tetrahydro-2-furanylmethyl)-2-pyridinamine]
COc1ccc(CN[C@H](C)c2cccc3ccccc23)cc1-c1ccc2c(cnn2C)c1 [(1R)-N-((3-(1-methyl-1H-indazol-5-yl)-4-(methyloxy)phenyl)methyl)-1-(1-naphthalenyl)ethanamine]
C[C@@H](NCc1cccc(-c2ccc(C(F)(F)F)nc2)c1)c1cccc2ccccc12 [(1R)-1-(1-naphthalenyl)-N-((3-(6-(trifluoromethyl)-3-pyridinyl)phenyl)methyl)ethanamine]
COc1ccc(CN[C@H](C)c2cccc3ccccc23)cc1-c1cnc(OCC(F)(F)F)nc1 [(1R)-N-((4-(methyloxy)-3-(2-((2,2,2-trifluoroethyl)oxy)-5-pyrimidinyl)phenyl)methyl)-1-(1-naphthalenyl)ethanamine]
C[C@@H](NCc1cccc(-c2ccccn2)c1)c1ccccc1 [(1R)-1-phenyl-N-((3-(2-pyridinyl)phenyl)methyl)ethanamine]
CCOC(=O)N1CCC(c2cc(CN[C@H](C)c3cccc(OC)c3)ccc2OC)CC1 [ethyl 4-(2-(methyloxy)-5-((((1R)-1-(3-(methyloxy)phenyl)ethyl)amino)methyl)phenyl)-1-piperidinecarboxylate]
Cc1ccc([C@@H](C)NCc2cccc(-c3ccoc3)c2)cc1 [Example 224, (1R)-N-((3-(3-furanyl)phenyl)methyl)-1-(4-methylphenyl)ethanamine]
COc1ccc(CN[C@H](C)c2cccc3ccccc23)cc1-n1cccc1 [(1R)-N-((4-(methyloxy)-3-(1H-pyrrol-1-yl)phenyl)methyl)-1-(1-naphthalenyl)ethanamine]
COc1ccc(CN[C@H](C)c2cccc3ccccc23)cc1-c1ccc2c(ccn2CC(N)=O)c1 [2-(5-(2-(methyloxy)-5-((((1R)-1-(1-naphthalenyl)ethyl)amino)methyl)phenyl)-1H-indol-1-yl)acetamide]
COc1ccc([C@@H](C)NCc2cccc(-c3ccccc3C)c2)cc1 [(1R)-N-((2′-methyl-1,1′-biphenyl-3-yl)methyl)-1-(4-(methyloxy)phenyl)ethanamine]
COc1cccc([C@@H](C)NCc2ccc(OC)c(-c3cncnc3)c2)c1 [(1R)-1-(3-(methyloxy)phenyl)-N-((4-(methyloxy)-3-(5-pyrimidinyl)phenyl)methyl)ethanamine]
COc1ccc(CN[C@H](C)c2ccccc2)cc1-c1cn(C)cn1 [(1R)-N-((3-(1-methyl-1H-imidazol-4-yl)-4-(methyloxy)phenyl)methyl)-1-phenylethanamine]
